Key:
Wilson's disease = settings: cited from earlier work
[1] = Solubility and storage stability of TM salts; format: physicochemical
Text: In some embodiments, the salt of TM is an ammonium salt. […] Thus, the bulk drug should be stored in the absence of oxygen, or the oxygen will gradually exchange with the sulfur, rendering the drug ineffective over time. The bulk drug is therefore stored under argon.
Thus, other salts have been prepared and evaluated for solubility, stability and anticopper activity. […] In other embodiments, the salt choline TM has suitable desirable properties. In yet other embodiments, the salt tetraethyl TM has suitable properties. These exemplary salts of TM have suitable solubility in water, and behave similarly to ammonium salt of TM in in vitro copper complexing studies.

[2] = system: DXR induced cardiotoxicity and myocardial fibrosis; test: Trientine mouse doxorubicin study; format: in vivo, mice
Procedure: Mice and mouse food. All mice were 7-8 weeks old at the start of the various studies, were C57BL/6 purchased from Jackson Laboratory, Bar Harbor, Me., and were housed at 21±2° C. on a 12 hr light/dark cycle in polycarbonate cages containing corn cob bedding. Experimental animals were housed in the University of Michigan Unit for Laboratory Animal Medicine facility and treated in accord with a protocol approved by the University of Michigan Institutional Animal Care and Use Committee. They were fed a mouse diet from Harlan/Teklad, Madison, Wis., to which copper and zinc had not been added by the manufacturer. […] Copper and zinc are then added to the diet such that the final contents were 2 mg copper and 10 mg zinc/kg of food.
Trientine mouse doxorubicin study. The copper chelator trientine was studied and compared to TM to determine the effects, if any, of trientine on DXR induced cardiotoxicity and myocardial fibrosis in mice using doses of trientine by oral gavage to lower the Cp to target range.
(§1) Assay Methods. Cp was measured by the oxidase enzyme using known methods. Troponin I, LDH, and CK MB were measured by kit methods using known methods.
(§2) Statistical Analysis. For the comparison of means analysis of variance (ANOVA) was used. All data in the figures are given as means+the standard error.

[3] = system: doxorubicin model of heart damage; test: Zinc vs. TM therapy mouse doxorubicin study; format: in vivo, C57BL/6 mice; settings: for day 4 troponin I plasma level: FIG. 2; for day 4 CK MB plasma level: FIG. 3; for plasma Cp at day 0 (day of DXR administration): after pretreatment to lower Cp
Procedure: (§3) Mice and mouse food. All mice were 7-8 weeks old at the start of the various studies, were C57BL/6 purchased from Jackson Laboratory, Bar Harbor, Me., and were housed at 21±2° C. on a 12 hr light/dark cycle in polycarbonate cages containing corn cob bedding. Experimental animals were housed in the University of Michigan Unit for Laboratory Animal Medicine facility and treated in accord with a protocol approved by the University of Michigan Institutional Animal Care and Use Committee. They were fed a mouse diet from Harlan/Teklad, Madison, Wis., to which copper and zinc had not been added by the manufacturer. Each lot was assayed by atomic absorption and found to contain about 0.6 mg of copper and about 6.0 mg of zinc/kg of food. Copper and zinc are then added to the diet such that the final contents were 2 mg copper and 10 mg zinc/kg of food.
Zinc vs. TM therapy mouse doxorubicin study. The zinc depot method involved injecting subcutaneously a 20 mg zinc/mL of corn oil suspension to achieve a dose of 110 mg of zinc/kg of mouse weight, weekly. With this method, Cp levels were lowered to target range in 4 weeks. Cp levels were lowered with TM in a second group of mice by using 0.015 mg/ml of TM in the drinking water, and changing the drinking water every day.
20 male mice were divided into four equal groups, 5 to receive depot zinc and then DXR, 5 to receive TM in the drinking water and then DXR, 5 to receive DXR only, and 5 to serve as controls. After Cp levels had been lowered in the first two groups, the first three groups of mice received DXR intraperitoneally at a single dose of 20 mg/kg body weight. Since DXR toxicity inhibits mice from drinking water, after DXR administration, TM mice were treated with a daily gavage of 0.2 mg of TM in 0.1 ml of water. Four days after DXR, all mice were sacrificed, and Cp, troponin I, creatine kinase (CK) MB, and lactic dehydrogenase (LDH) levels were all measured in the plasma according to previously described methods.
as §1, §2

doxorubicin toxicity = settings: mice, previously found; cited from earlier work
[4] = system: myocardial toxicity resulting from administration of doxorubicin HCl; settings: administered contemporaneously with doxorubicin HCl; cited from earlier work
[5] = stability assays developed by the inventors (Brewer et al. 1991); cited from earlier work
DXR toxicity = test: TM therapy copper supplementation doxorubicin study; format: in vivo, mice
Procedure: as §3
TM therapy copper supplementation doxorubicin study. In order to verify that the effect of TM in the DXR study was due to lowering copper, a study of DXR toxicity was done in which a TM treated group was supplemented with excess copper. In this study, 20 mice were divided into four equal groups, 5 to receive 0.015 mg/ml of TM in the drinking water to lower Cp and then receive DXR (TM was given by gavage after DRX), 5 to receive TM in the same dose and manner as the first group but the diet was supplemented with either 30 or 100 ppm copper such that the Cp didn't fall as far as with TM alone, and then they received DXR, 5 to receive DXR only, and 5 served as controls. After Cp was decreased in the first group, DXR in an intraperitoneal dose of 20 mg/kg body weight was given to the first three groups of mice. Four days after DXR the mice were sacrificed and serum Cp, troponin I, and LDH determined.
as §1, §2

[6] = 4 days after DXR, vs DXR controls

For `[Mo]` [Mo, molybdenum], the “toxicity of high doses” value (Wilson's disease; human, in vivo) is given as “without toxicity”.

For `CCC[N+](CCC)(CCC)CCC.CCC[N+](CCC)(CCC)CCC.[S]=[Mo](=[S])([S-])[S-]` [TPTM, tetrapropyl tetrathiomolybdate], the “solubility, stability and anticopper activity, overall” value [1] was “has met all desired properties”.

With `NCCNCCNCCN` [trientine] the “effect on LDH” value ([2]; FIG. 5B) was “no protective effect”, the “effect on CK-MB” value ([2]; FIG. 5C) was “no protective effect” and the “effect on Troponin 1” value ([2]; FIG. 5D) was “statistically insignificant effect”. For the same compound, the “Cp at day 4 (4 days after DXR)” value ([2]; continued trientine therapy by oral gavage, FIG. 5A) was “increased into the normal range” and the “Cp at day 0 (when DXR is given)” value ([2]; pretreated by oral gavage, FIG. 5A) was “down significantly, into the target range”.

For `[Zn]` [zinc, reference compound], the “day 4 troponin I plasma level” value [3, 6] was “somewhat lower mean value than controls, but it didn't reach statistical significance”, the “day 4 CK MB plasma level” value [3, 6] was “no effect” and the “plasma Cp at day 0 (day of DXR administration)” value ([3]; FIG. 1) was “equal suppression of Cp”. The “time until Cp levels lowered to target range” value ([3]; zinc depot s.c. 110 mg zinc/kg weekly) was 4 weeks and the “effect on doxorubicin toxicity” value (doxorubicin toxicity) was “attenuates doxorubicin toxicity”.

In the case of `C[C@@H](CN1CC(=O)NC(=O)C1)N1CC(=O)NC(=O)C1` [dexrazoxane, (S)-(+)-bis-4,4′-(1-methyl-1,2-ethanediyl)2,6-piperazinedione], the “effect on myocardial toxicity of doxorubicin HCl” value [4] is given as “can reduce or prevent the myocardial toxicity”.

For `[NH4+].[NH4+].[SH-].[SH-].[S]=[Mo]=[S]` [TM as the ammonium salt], the solubility in water [1] was “moderately water soluble”, the stability in air ([1]; bulk drug) was “mild air instability” and the stability in capsules ([1]; room temperature) was “stable in capsules for several months at room temperature”. For the same compound, the “stability of bulk drug under argon” value [5] was “stable for several years under argon”.

For `[SH-].[SH-].[S]=[Mo]=[S]` [TM, tetrathiomolybdate], the “plasma Cp at day 4 (day of sacrifice), increase after DXR” value ([3]; 4 days after DXR 20 mg/kg i.p., FIG. 1) was “almost completely prevented”, the “day 4 troponin I plasma level” value [3, 6] was “statistically significant effect on maintaining a lower troponin I” and the “day 4 CK MB plasma level” value [3, 6] was “statistically significantly lower value than DXR controls”. The “day 4 LDH plasma level” value ([3]; 4 days after DXR, vs DXR controls, FIG. 4) was “statistically significant effect on maintaining lower values than DXR controls”, the “plasma Cp at day 0 (day of DXR administration)” value ([3]; FIG. 1) was “equal suppression of Cp” and the “protection against cardiac damage, comparison with zinc” value ([3]; similar levels of copper lowering at the time of doxorubicin exposure) was “much more effective than zinc”. The “protection of the heart against doxorubicin toxicity, comparison with trientine” value ([2]; same animal model) was “much more effective than trientine”, the “Cp value on day zero (day of DXR administration)” value (DXR toxicity; group average, DXR only group about 25 U/L) was “about 12 U/L” and the “plasma LDH at day 4 after DXR” value (DXR toxicity; vs DXR only animals, FIG. 6) was “statistically significantly lower than in the DXR only animals”. The “mean troponin I level at day 4 after DXR” value (DXR toxicity; vs DXR only animals, FIG. 7) was “less than half of the DXR only animals”, the toxicity in humans (Wilson's disease; Wilson's disease work) was “extremely low level of toxicity” and the “effect on neurological worsening during initial treatment” value (Wilson's disease; Wilson's disease) was “prevents the neurological worsening”.

For `CC(C)(S)[C@@H](N)C(=O)O` [penicillamine, reference compound], the “neurological worsening during initial treatment” value (Wilson's disease; Wilson's disease, share of the time) is given as 50%.

From US20080213396A1, “Copper Lowering Treatment Of Cardiac Disease” (The Regents of the University of Michigan, priority 2007, published 2008)
